Laboratory results published in US20240247035A1, “STAPLED ANTIMICROBIAL PEPTIDES (STAMPS) AND USES THEREOF” (Lytica Therapeutics, Inc., priority 2021, published 2024).
Values after ≈ are worked out from the molar mass of the structure shown. Bridge positions count the residues as written; N and C are the ends. Square brackets hold non-standard residues; d marks the D form. Peptide text beside a SMILES is read from it. Phe(4-tBu) = CC(C)(C)c1ccc(C[C@H](N)C(=O)O)cc1; S5 = C=CCCC[C@](C)(N)C(=O)O; Orn = NCCC[C@H](N)C(=O)O; Dab = NCC[C@H](N)C(=O)O; Dap = NC[C@H](N)C(=O)O

Experiments:
[1] = 90 minute cytotoxicity assay (LDH release), renal toxicity; format: cell-based; conditions: human
Protocol: (§1) Cell culture: RPTEC were maintained in MEM media supplemented with growth factors. HEPG2 cell line was maintained in Eagle's Minimum Essential Medium (EMEM) supplemented with fetal bovine serum to a final concentration of 10%.
90 minute cytotoxicity assay: Cells were plated in a 96-well format, and after overnight incubation, media was replaced with fresh media. Serial dilutions of StAMPs from a 5 mg/mL water stock, or vehicle, were added to the cells in a final volume of 100 μl. After incubating at 37° C. for 90 min, 50 μl of cell culture media was transferred to a clear 96-well plate, incubated with 50 μl of lactate dehydrogenase (LDH) assay reagent for 10 min, and absorbance measured at 490 nm on a microplate reader.
(§2) Renal toxicity was measured after 90 minutes of incubation, while liver toxicity was measured after 48 hours of incubation with StAMPs. N/A=not tested.

[2] = 48 hours cytotoxicity assay (CellTiter-Glo), liver toxicity; format: cell-based; conditions: human
Protocol: as §1
48 hours cytotoxicity assay: Cells were plated in a 96-well format, and after 4 hour incubation to allow attachment, serial dilutions of StAMPs from a 5 mg/mL water stock, or vehicle, were then added to the cells in a final volume of 100 μl. After incubating at 37° C. for 48 hours, 100 μl of CellTiter-Glo® reagent was added to the cells, and the plates were incubated 10 minutes at room temperature. Luminescence was then measured on a microplate reader.
as §2

| SMILES | IC50 at 90 min [1] [µg/mL] | IC50 at 48 hours [2] [µg/mL] |
| --- | --- | --- |
| CC[C@H](C)[C@@H]1NC(=O)[C@@](C)(NC(=O)[C@H](CC(C)C)NC(=O)[C@H](CC(N)=O)NC(=O)[C@H](CCCCN)NC(=O)[C@H](CC(C)C)NC(=O)[C@H](CCCCN)NC(=O)[C@H](CCCCN)NC(=O)CNC(=O)[C@H](C)NC(=O)[C@]2(C)CCCC=CCCC[C@](C)(NC(=O)CN)C(=O)N[C@@H](Cc3ccccc3)C(=O)N[C@@H](CO)C(=O)N[C@@H](CCCCN)C(=O)N2)CCCC=CCCC[C@@](C)(C(=O)N[C@@H](CCCCN)C(=O)N[C@@H](CC(N)=O)C(N)=O)NC(=O)CNC(=O)[C@H](CO)NC1=O [compound 13] (H-G[S5]FSK[S5]AGKKLKNL[S5]ISG[S5]KN-NH2; staple 2-6, 15-19) | 17 (≈ 7.42 µM) | 210 (≈ 91.7 µM) |
| CC[C@H](C)[C@H](NC(=O)[C@H](CCN)NC(=O)[C@H](CCN)NC(=O)CNC(=O)[C@H](CCN)NC(=O)[C@]1(C)CCCC=CCCC[C@](C)(NC(=O)CN)C(=O)N[C@@H](Cc2ccccc2)C(=O)N[C@@H](CO)C(=O)N[C@@H](CCN)C(=O)N1)C(=O)N[C@@H](CCN)C(=O)N[C@@H](CC(N)=O)C(=O)N[C@@H](CC(C)C)C(=O)N[C@@]1(C)CCCC=CCCC[C@@](C)(C(=O)N[C@@H](CCN)C(=O)NCC(N)=O)NC(=O)CNC(=O)[C@H](CO)NC(=O)[C@H]([C@@H](C)CC)NC1=O [compound 14] (H-G[S5]FS[Dab][S5][Dab]G[Dab][Dab]I[Dab]NL[S5]ISG[S5][Dab]G-NH2; staple 2-6, 15-19) | 40 (≈ 18.9 µM) | ~150 (≈ 70.7 µM) |
| CC[C@H](C)[C@H](NC(=O)[C@H](CCCN)NC(=O)[C@H](CCCN)NC(=O)CNC(=O)[C@H](CCCN)NC(=O)[C@]1(C)CCCC=CCCC[C@](C)(NC(=O)CN)C(=O)N[C@@H](Cc2ccccc2)C(=O)N[C@@H](CO)C(=O)N[C@@H](CCCN)C(=O)N1)C(=O)N[C@@H](CCCN)C(=O)N[C@@H](CC(N)=O)C(=O)N[C@@H](CC(C)C)C(=O)N[C@@]1(C)CCCC=CCCC[C@@](C)(C(=O)N[C@@H](CCCN)C(=O)NCC(N)=O)NC(=O)CNC(=O)[C@H](CO)NC(=O)[C@H]([C@@H](C)CC)NC1=O [compound 15] (H-G[S5]FS[Orn][S5][Orn]G[Orn][Orn]I[Orn]NL[S5]ISG[S5][Orn]G-NH2; staple 2-6, 15-19) | 25 (≈ 11.3 µM) | ~100 (≈ 45.3 µM) |
| CC[C@H](C)[C@H](NC(=O)[C@H](CN)NC(=O)[C@H](CN)NC(=O)CNC(=O)[C@H](CN)NC(=O)[C@]1(C)CCCC=CCCC[C@](C)(NC(=O)CN)C(=O)N[C@@H](Cc2ccccc2)C(=O)N[C@@H](CO)C(=O)N[C@@H](CN)C(=O)N1)C(=O)N[C@@H](CN)C(=O)N[C@@H](CC(N)=O)C(=O)N[C@@H](CC(C)C)C(=O)N[C@@]1(C)CCCC=CCCC[C@@](C)(C(=O)N[C@@H](CN)C(=O)NCC(N)=O)NC(=O)CNC(=O)[C@H](CO)NC(=O)[C@H]([C@@H](C)CC)NC1=O [compound 16] (H-G[S5]FS[Dap][S5][Dap]G[Dap][Dap]I[Dap]NL[S5]ISG[S5][Dap]G-NH2; staple 2-6, 15-19) | > 200 | ~200 (≈ 98.2 µM) |
| CC[C@H](C)[C@H](NC(=O)[C@H](CCCCN)NC(=O)[C@H](CCCCN)NC(=O)CNC(=O)[C@H](CCCCN)NC(=O)[C@]1(C)CCCC=CCCC[C@](C)(NC(=O)CN)C(=O)N[C@@H](CCCCN)C(=O)N[C@@H](CO)C(=O)N[C@@H](CCCCN)C(=O)N1)C(=O)N[C@@H](CCCCN)C(=O)N[C@@H](CC(N)=O)C(=O)N[C@@H](CC(C)C)C(=O)N[C@@]1(C)CCCC=CCCC[C@@](C)(C(=O)N[C@@H](CCCCN)C(=O)N[C@@H](CC(N)=O)C(N)=O)NC(=O)CNC(=O)[C@H](CO)NC(=O)[C@H]([C@@H](C)CC)NC1=O [compound 17] (H-G[S5]KSK[S5]KGKKIKNL[S5]ISG[S5]KN-NH2; staple 2-6, 15-19) | 325 (≈ 140 µM) | 172 (≈ 73.9 µM) |
| CC[C@H](C)[C@H](NC(=O)[C@H](CCCCN)NC(=O)[C@H](CCCCN)NC(=O)CNC(=O)[C@H](CCCCN)NC(=O)[C@]1(C)CCCC=CCCC[C@](C)(NC(=O)CN)C(=O)N[C@@H](CCCCN)C(=O)N[C@@H](CO)C(=O)N[C@@H](CCCCN)C(=O)N1)C(=O)N[C@@H](CCCCN)C(=O)N[C@@H](CC(N)=O)C(=O)N[C@@H](Cc1ccc(C(C)(C)C)cc1)C(=O)N[C@@]1(C)CCCC=CCCC[C@@](C)(C(=O)N[C@@H](CCCCN)C(=O)N[C@@H](CC(N)=O)C(N)=O)NC(=O)CNC(=O)[C@H](CO)NC(=O)[C@H]([C@@H](C)CC)NC1=O [compound 19] (H-G[S5]KSK[S5]KGKKIKN[Phe(4-tBu)][S5]ISG[S5]KN-NH2; staple 2-6, 15-19) | 68 (≈ 28.1 µM) | 23 (≈ 9.51 µM) |
| CC[C@H](C)[C@H](NC(=O)[C@H](CCCCN)NC(=O)[C@H](CCCCN)NC(=O)CNC(=O)[C@H](CCCCN)NC(=O)[C@]1(C)CCCC=CCCC[C@](C)(NC(=O)CN)C(=O)N[C@@H](CCCCN)C(=O)N[C@@H](CO)C(=O)N[C@@H](CCCCN)C(=O)N1)C(=O)N[C@@H](CCCCN)C(=O)N[C@@H](CC(N)=O)C(=O)N[C@@H](CC(C)C)C(=O)N[C@@]1(C)CCCC=CCCC[C@@](C)(C(=O)N[C@@H](CCCCN)C(=O)N[C@@H](CC(N)=O)C(N)=O)NC(=O)CNC(=O)[C@H](CO)NC(=O)[C@H](Cc2ccc(C(C)(C)C)cc2)NC1=O [compound 20] (H-G[S5]KSK[S5]KGKKIKNL[S5][Phe(4-tBu)]SG[S5]KN-NH2; staple 2-6, 15-19) | 46 (≈ 19 µM) | 29 (≈ 12 µM) |
| CC[C@H](C)[C@H](NC(=O)[C@H](CCCCN)NC(=O)[C@H](CCCCN)NC(=O)CNC(=O)[C@H](CCCCN)NC(=O)[C@]1(C)CCCC=CCCC[C@](C)(NC(=O)CN)C(=O)N[C@@H](CCCCN)C(=O)N[C@@H](CO)C(=O)N[C@@H](CCCCN)C(=O)N1)C(=O)N[C@@H](CCCCN)C(=O)N[C@@H](CC(N)=O)C(=O)N[C@@H](CC(C)C)C(=O)N[C@@]1(C)CCCC=CCCC[C@@](C)(C(=O)N[C@@H](CCCCN)C(=O)N[C@@H](CC(N)=O)C(N)=O)NC(=O)[C@H](C(C)C)NC(=O)[C@H](CO)NC(=O)[C@H]([C@@H](C)CC)NC1=O [compound 21] (H-G[S5]KSK[S5]KGKKIKNL[S5]ISV[S5]KN-NH2; staple 2-6, 15-19) | 54 (≈ 22.8 µM) | 32 (≈ 13.5 µM) |
| CC[C@H](C)[C@H](NC(=O)[C@H](CCCCN)NC(=O)[C@H](CCCCN)NC(=O)CNC(=O)[C@H](CCCCN)NC(=O)[C@]1(C)CCCC=CCCC[C@](C)(NC(=O)CN)C(=O)N[C@@H](CCCCN)C(=O)N[C@@H](CO)C(=O)N[C@@H](CCCCN)C(=O)N1)C(=O)N[C@@H](CCCCN)C(=O)N[C@@H](CC(N)=O)C(=O)N[C@@H](CC(C)C)C(=O)N[C@@]1(C)CCCC=CCCC[C@@](C)(C(=O)N[C@@H](CCCCN)C(=O)N[C@@H](CC(N)=O)C(N)=O)NC(=O)[C@H](Cc2ccccc2)NC(=O)[C@H](CO)NC(=O)[C@H]([C@@H](C)CC)NC1=O [compound 22] (H-G[S5]KSK[S5]KGKKIKNL[S5]ISF[S5]KN-NH2; staple 2-6, 15-19) | 16 (≈ 6.62 µM) | 67 (≈ 27.7 µM) |
| CC[C@H](C)[C@H](NC(=O)[C@H](CCCCN)NC(=O)[C@H](CCCCN)NC(=O)CNC(=O)[C@H](CCCCN)NC(=O)[C@]1(C)CCCC=CCCC[C@](C)(NC(=O)CN)C(=O)N[C@@H](CCCCN)C(=O)N[C@@H](CO)C(=O)N[C@@H](CCCCN)C(=O)N1)C(=O)N[C@@H](CCCCN)C(=O)N[C@@H](CC(N)=O)C(=O)N[C@@H](CC(C)C)C(=O)N[C@@]1(C)CCCC=CCCC[C@@](C)(C(=O)N[C@@H](CCCCN)C(=O)N[C@@H](CC(N)=O)C(=O)N[C@@H](CCC(=O)O)C(N)=O)NC(=O)[C@H](Cc2ccccc2)NC(=O)[C@H](CO)NC(=O)[C@H]([C@@H](C)CC)NC1=O [compound 23] (H-G[S5]KSK[S5]KGKKIKNL[S5]ISF[S5]KNE-NH2; staple 2-6, 15-19) | 62 (≈ 24.3 µM) | 53 (≈ 20.8 µM) |
| CC[C@H](C)[C@H](NC(=O)[C@H](CCCCN)NC(=O)[C@H](CCCCN)NC(=O)CNC(=O)[C@H](CCCCN)NC(=O)[C@]1(C)CCCC=CCCC[C@](C)(NC(=O)CN)C(=O)N[C@@H](CCCCN)C(=O)N[C@@H](CO)C(=O)N[C@@H](CCCCN)C(=O)N1)C(=O)N[C@@H](CCCCN)C(=O)N[C@@H](CC(N)=O)C(=O)N[C@@H](CC(C)C)C(=O)N[C@@]1(C)CCCC=CCCC[C@@](C)(C(=O)N[C@@H](CCCCN)C(=O)N[C@@H](CC(N)=O)C(=O)NCC(=O)NCC(=O)NCC(=O)N[C@@H](CCC(=O)O)C(N)=O)NC(=O)[C@H](Cc2ccccc2)NC(=O)[C@H](CO)NC(=O)[C@H]([C@@H](C)CC)NC1=O [compound 24] (H-G[S5]KSK[S5]KGKKIKNL[S5]ISF[S5]KNGGGE-NH2; staple 2-6, 15-19) | 112 (≈ 41.2 µM) | 16 (≈ 5.89 µM) |
| CC[C@H](C)[C@H](NC(=O)[C@H](CCCCN)NC(=O)[C@H](CCCCN)NC(=O)CNC(=O)[C@H](CCCCN)NC(=O)[C@]1(C)CCCC=CCCC[C@](C)(NC(=O)[C@@H](N)CCCCN)C(=O)N[C@@H](Cc2ccccc2)C(=O)N[C@@H](CO)C(=O)N[C@@H](CCCCN)C(=O)N1)C(=O)N[C@@H](CCCCN)C(=O)N[C@@H](CC(N)=O)C(=O)N[C@@H](CC(C)C)C(=O)N[C@@]1(C)CCCC=CCCC[C@@](C)(C(=O)N[C@@H](CCCCN)C(=O)NCC(N)=O)NC(=O)CNC(=O)[C@H](CO)NC(=O)[C@H]([C@@H](C)CC)NC1=O [compound 25] (H-K[S5]FSK[S5]KGKKIKNL[S5]ISG[S5]KG-NH2; staple 2-6, 15-19) | 109 (≈ 46.2 µM) | 49 (≈ 20.8 µM) |
